The subject of one assay is CEMO-1. Kind of assay: Cell proliferation assay, CEMO-1 (ALL). The class given is cell-based, human. The following applies: Homo sapiens; ALL; Table 5 comparison.
In the next assay the test system is JJN3. Put plainly: Cell proliferation assay, JJN3 (MM). The format is cell-based. The following applies: Homo sapiens, JJN-3, Table 5 comparison. On the procedure:
(§1) Cell proliferation was analyzed after 48 hours of in vitro treatment using the CellTiter 96 Aqueous One Solution Cell Proliferation Assay (Promega, Madison, Wis.). This is a colorimetric method for determining the number of viable cells in proliferation.
(§2) For the assay, suspension cells were cultured by triplicate at a density of 1×10^6 cells/ml in 96-well plates (100.000 cells/well, 100 μl/well), except for OCILY-3 and OCILY-10 cell lines which were cultured at a density of 0.5×10^6 cells/ml (50.000 cells/well, 100 μl/well) and for HepG2, Hep3B and PLC/PRF/5 cell ines which were cultured at a density of 3000 cells/well, 100 μl/well). Adherent cells were obtained from 80-90% confluent flasks and 100 μl of cells were seeded at a density of 5000 cells/well in 96-well plates by triplicate. Before addition of the compounds, adherent cells were allowed to attach to the bottom of the wells for 12 hours. In all cases, only the 60 inner wells were used to avoid any border effects.
(§3) After 48 hours of treatment, plates with suspension cells were centrifuged at 800 g for 10 minutes and medium was removed. The plates with adherent cells were flicked to remove medium. Then, cells were incubated with 100 ul/well of medium and 20 ul/well of CellTiter 96 Aqueous One Solution reagent. After 1-3 hours of incubation at 37° C., absorbance was measured at 490 nm in a 96-well plate reader. The background absorbance was measured in wells with only cell line medium and solution reagent. Data was calculated as a percentage of total absorbance of treated cell/absorbance of non treated cells.

Another assay concerns OCI-AML-2. Kind of assay: Cell proliferation assay, OCI-AML-2 (AML). The class given is cell-based. The following applies: Homo sapiens, OCI-AML2, Table 5 comparison. As to the method:
as §1, §2, §3
(§4) Compounds 3-04 and 3-07 were tested against different solid tumour and oncohematological cell lines using the cell proliferation protocol described above.

Assay [1] concerns BJ human fibroblasts. Put plainly: iPSC reprogramming of BJ human fibroblasts with retroviral vectors (O:S). Particulars: compound concentration 200 nM. The class given is cell-based.
A further assay addresses DNMT3A (Homo sapiens, UniProt Q9Y6K1). Kind of assay: DNMT3A inhibition reported in the literature. The class given is biochemical. Particulars: read-out: IC50 against DNMT3A.
Another assay deals with DNMT1 (Homo sapiens, UniProt P26358). Kind of assay: DNMT1 inhibition reported in the literature. Particulars: read-out: IC50 against DNMT1. The format is biochemical.
Chain of DNMT1 (P26358 whole entry, species assumed): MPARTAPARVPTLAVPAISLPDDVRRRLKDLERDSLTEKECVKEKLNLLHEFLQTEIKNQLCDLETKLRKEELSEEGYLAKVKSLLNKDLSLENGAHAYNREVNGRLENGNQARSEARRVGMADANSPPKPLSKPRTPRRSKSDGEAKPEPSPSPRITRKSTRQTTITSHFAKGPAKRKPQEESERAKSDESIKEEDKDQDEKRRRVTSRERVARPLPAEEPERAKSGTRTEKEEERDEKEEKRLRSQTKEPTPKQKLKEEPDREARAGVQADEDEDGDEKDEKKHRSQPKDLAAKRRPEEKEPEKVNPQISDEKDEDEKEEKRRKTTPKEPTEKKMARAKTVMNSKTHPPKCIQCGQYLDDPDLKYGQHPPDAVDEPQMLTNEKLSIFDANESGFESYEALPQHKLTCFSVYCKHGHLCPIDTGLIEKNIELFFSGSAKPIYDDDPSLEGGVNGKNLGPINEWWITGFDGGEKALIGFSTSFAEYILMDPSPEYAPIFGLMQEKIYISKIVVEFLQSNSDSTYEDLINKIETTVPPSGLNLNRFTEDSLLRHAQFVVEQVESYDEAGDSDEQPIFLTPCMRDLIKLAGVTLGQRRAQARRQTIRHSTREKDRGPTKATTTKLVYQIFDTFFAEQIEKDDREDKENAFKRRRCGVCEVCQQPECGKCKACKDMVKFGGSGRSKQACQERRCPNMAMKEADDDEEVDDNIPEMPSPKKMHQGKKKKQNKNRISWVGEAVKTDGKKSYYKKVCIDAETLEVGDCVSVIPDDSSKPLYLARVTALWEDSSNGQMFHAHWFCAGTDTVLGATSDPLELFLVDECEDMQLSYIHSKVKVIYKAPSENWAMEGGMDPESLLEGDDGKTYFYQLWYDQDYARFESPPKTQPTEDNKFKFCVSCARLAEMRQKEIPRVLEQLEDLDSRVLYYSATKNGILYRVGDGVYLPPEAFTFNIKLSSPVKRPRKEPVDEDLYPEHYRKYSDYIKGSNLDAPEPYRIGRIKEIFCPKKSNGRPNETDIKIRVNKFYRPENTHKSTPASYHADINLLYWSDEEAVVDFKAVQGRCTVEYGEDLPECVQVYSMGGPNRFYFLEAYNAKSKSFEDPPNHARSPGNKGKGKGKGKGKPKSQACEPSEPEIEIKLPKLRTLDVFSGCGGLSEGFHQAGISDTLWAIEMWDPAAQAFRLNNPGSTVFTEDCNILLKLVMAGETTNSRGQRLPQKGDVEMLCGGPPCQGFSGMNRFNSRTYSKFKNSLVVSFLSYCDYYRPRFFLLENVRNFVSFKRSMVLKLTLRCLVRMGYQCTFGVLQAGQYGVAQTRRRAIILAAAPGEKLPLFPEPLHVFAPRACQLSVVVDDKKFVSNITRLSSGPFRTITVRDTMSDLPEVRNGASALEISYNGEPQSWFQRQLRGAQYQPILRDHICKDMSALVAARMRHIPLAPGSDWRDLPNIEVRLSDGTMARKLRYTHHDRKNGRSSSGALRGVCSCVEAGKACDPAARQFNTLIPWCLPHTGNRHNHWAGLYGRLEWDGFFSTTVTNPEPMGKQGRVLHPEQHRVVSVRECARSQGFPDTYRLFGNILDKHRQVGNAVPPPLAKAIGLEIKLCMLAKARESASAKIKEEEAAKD
The test system of assay [2] is BJ human fibroblasts. Put plainly: iPSC reprogramming of BJ human fibroblasts with lentiviral vectors (O:S:K:M). Particulars: compound concentration 200 nM. The class given is cell-based. From the text:
The used reprogramming system consisted in four independent doxycycline inducible lentiviral vectors (FUW-Tet-O based vectors) coding for the human OCT4 (addgene, ref#20726), SOX2 (addgene, ref#20724), KLF4 (addgene, ref#20725) and cMYC (addgene, ref#20723) transcription factors (O:S:K:M) Vesicular Stomatitis Virus G (VSVG)-coated lentiviruses were generated in 293T cells as described previously (Tiscornia et al., Nat Protoc. 2006; 1(1):241-5.). Briefly, 293T cells (ATCC, CRL-3216) were transfected with FUW-TetO lentiviral vectors referred above along with packaging plasmids psPAX2 (addgene, ref#12260) and pMD2.G (addgene, ref#12259) under the same conditions as those disclosed by Tiscornia et al, supra. […]
• Day 2: Second infection of BJ cells (same conditions that first infection). • Day 3: Replate BJ cells in 2×175 cm^2 culture flask in fresh FCM. • Day 4: Incubate 1×175 cm^2 flask with 0.2 μM or 0.1 μM of test compound and the other flask just with FCM. Compound concentrations were selected according to the determined GI50 in BJ human fibroblasts, in order to avoid cytotoxicity. […]
Reprogramming efficiency was quantified four weeks after infection. Presence of ESC-like colonies was detected by alkaline phosphatase (AP) staining using Leukocyte Alkaline Phosphatase Kit (Sigma) according to the manufacturer's protocol.

The test system of another assay is LAL-CUN-2. Kind of assay: Cell proliferation assay, LAL-CUN-2 (ALL). The format is cell-based. The following applies: ALL; Table 5 comparison. As to the method: as §1, §2, §3
For another assay, the system named is MV411. Put plainly: Cell proliferation assay, MV411 / MV4-11 (AML). Particulars: Homo sapiens, MV4-11, Table 5 comparison. The format is cell-based. As to the method: as §1, §2, §3, §4
Another assay deals with U266. Kind of assay: Cell proliferation assay, U266 (MM). The class given is cell-based. The following applies: Homo sapiens, U-266, Table 5 comparison. As to the method:
as §1, §2, §3

Molecules are shown by their SMILES.

Chain of DNMT3A (Q9Y6K1 whole entry, looked up, species assumed): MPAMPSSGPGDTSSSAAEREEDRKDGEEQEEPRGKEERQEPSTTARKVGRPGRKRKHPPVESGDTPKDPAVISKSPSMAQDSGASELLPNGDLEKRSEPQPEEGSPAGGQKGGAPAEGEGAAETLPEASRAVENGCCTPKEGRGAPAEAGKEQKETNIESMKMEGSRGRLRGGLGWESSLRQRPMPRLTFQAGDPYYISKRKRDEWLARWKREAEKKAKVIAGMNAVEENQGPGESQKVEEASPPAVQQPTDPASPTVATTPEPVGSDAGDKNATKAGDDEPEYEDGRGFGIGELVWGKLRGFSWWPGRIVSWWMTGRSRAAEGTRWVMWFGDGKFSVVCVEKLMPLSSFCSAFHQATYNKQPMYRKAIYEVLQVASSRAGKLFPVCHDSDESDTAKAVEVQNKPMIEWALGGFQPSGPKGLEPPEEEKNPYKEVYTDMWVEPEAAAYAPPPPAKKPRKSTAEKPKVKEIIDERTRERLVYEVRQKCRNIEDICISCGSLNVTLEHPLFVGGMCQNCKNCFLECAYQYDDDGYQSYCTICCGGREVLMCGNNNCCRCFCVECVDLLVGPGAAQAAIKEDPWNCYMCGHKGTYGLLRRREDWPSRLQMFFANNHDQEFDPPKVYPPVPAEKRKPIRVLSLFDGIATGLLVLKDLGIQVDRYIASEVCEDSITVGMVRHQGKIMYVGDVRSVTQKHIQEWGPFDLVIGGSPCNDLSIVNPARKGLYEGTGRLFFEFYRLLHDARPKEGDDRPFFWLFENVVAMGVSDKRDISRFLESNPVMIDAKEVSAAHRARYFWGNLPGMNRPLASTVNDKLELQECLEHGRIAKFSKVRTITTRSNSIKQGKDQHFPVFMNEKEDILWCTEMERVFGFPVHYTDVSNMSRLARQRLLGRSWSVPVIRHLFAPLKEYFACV

With `COc1cc2nc(N3CCCN(C)CC3)nc(NC3CCN(Cc4ccccc4)CC3)c2cc1OC` [BIX01294, N-(1-benzyl-4-piperidyl)-6,7-dimethoxy-2-(4-methyl-1,4-diazepan-1-yl)quinazolin-4-amine], the GI50 in the assay with CEMO-1 is 1 to 10 µM; with JJN3, at least 10 µM; in the assay with OCI-AML-2 it was 1 to 10 µM; in the assay on LAL-CUN-2, 1 to 10 µM; with MV411, at least 10 µM; in the assay on U266, at least 10 µM. The “Folding respect to untreated (reprogramming efficiency, AP+ colonies)” value came to 1.04 with BJ human fibroblasts [1] and 1.29 in the assay on BJ human fibroblasts [2]. Also, the IC50 on DNMT3A and at DNMT1 was above 100 µM each time.

The GI50 is the concentration at which growth is held to half of that of the control. High values mean less potent growth inhibition, low ones more potent growth inhibition. As a reminder, the IC50 is the concentration that gives 50% inhibition.

The values above are taken from patent publication US9840500B2, “Compounds as dual inhibitors of histone methyltransferases and DNA methyltransferases” (FUNDACIÓN PARA LA INVESTIGACIÓN MÉDICA APLICADA, priority 2014, dated 2017).
